According to PMC9027176 (Viruses, 2022):
Where no end group is shown, it is not given here.

Each compound was assayed against KsBcl-2 (Human herpesvirus 8 type P, UniProt F5HGJ3, V117A) (assay: biochemical). Settings: not given.
Format: binding, Kaposi's sarcoma-associated herpesvirus

Chain of KsBcl-2 (F5HGJ3 1-146 V117A): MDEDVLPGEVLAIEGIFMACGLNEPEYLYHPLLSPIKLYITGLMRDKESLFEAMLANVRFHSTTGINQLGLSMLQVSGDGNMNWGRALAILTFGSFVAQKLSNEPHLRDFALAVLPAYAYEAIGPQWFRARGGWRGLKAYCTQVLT

| Compound | IC50 |
| --- | --- |
| PAELEVECATQLRRFGDKLNFRQKLL [Noxa] | 220 nM |

Same assay, conditions: SEM

| Compound | IC50 |
| --- | --- |
| CC[C@H](C)[C@H](NC(=O)[C@H](CS)NC(=O)[C@H](C)NC(=O)[C@H](CC(C)C)NC(=O)[C@H](CCCNC(=N)N)NC(=O)[C@H](CC(C)C)NC(=O)[C@H](C)NC(=O)[C@H](CC(C)C)NC(=O)[C@H](C)NC(=O)[C@H](CC(=O)O)NC(=O)[C@H](CO)NC(=O)CNC(=O)[C@H](CCC(=O)O)NC(=O)[C@@H](N)CCSC)C(=O)NCC(=O)N[C@@H](CC(=O)O)C(=O)N[C@@H](CCC(=O)O)C(=O)N[C@@H](CCSC)C(=O)N[C@@H](CC(=O)O)C(=O)N[C@H](C(=O)N[C@@H](CO)C(=O)N[C@@H](CC(C)C)C(=O)N[C@@H](CCCNC(=N)N)C(=O)N[C@@H](C)C(=O)N1CCC[C@H]1C(=O)O)C(C)C [Bik] | 64 ± 4 nM |
| VPQDASTKKLSECLKRIGDELDSNMELQ [Bax] | 16 nM |
| CC[C@H](C)[C@H](NC(=O)[C@H](CCC(=O)O)NC(=O)[C@H](CCCN=C(N)N)NC(=O)[C@H](C)NC(=O)[C@H](Cc1c[nH]c2ccccc12)NC(=O)[C@H](CCC(N)=O)NC(=O)[C@H](CCC(=O)O)NC(=O)[C@@H](N)CCC(=O)O)C(=O)NCC(=O)N[C@@H](C)C(=O)N[C@@H](CCC(N)=O)C(=O)N[C@@H](CC(C)C)C(=O)N[C@@H](CCCN=C(N)N)C(=O)N[C@@H](CCCN=C(N)N)C(=O)N[C@@H](CCSC)C(=O)N[C@@H](C)C(=O)N[C@@H](CC(=O)O)C(=O)N[C@@H](CC(=O)O)C(=O)N[C@@H](CC(C)C)C(=O)N[C@@H](CC(N)=O)C(=O)N[C@@H](C)C(=O)N[C@@H](CCC(N)=O)C(=O)N[C@@H](Cc1ccc(O)cc1)C(=O)N[C@@H](CCC(=O)O)C(=O)N[C@@H](CCCN=C(N)N)C(=O)N[C@@H](CCCN=C(N)N)C(=O)O [Puma] | 26 ± 9 nM |
| CC[C@H](C)[C@H](NC(=O)[C@H](CC(N)=O)NC(=O)[C@H](CCCNC(=N)N)NC(=O)[C@@H](NC(=O)[C@@H](NC(=O)[C@H](CC(=O)O)NC(=O)[C@H](CCC(=O)O)NC(=O)[C@H](CCC(N)=O)NC(=O)[C@H](CO)NC(=O)[C@H](CCC(=O)O)NC(=O)[C@@H](N)CO)[C@@H](C)CC)[C@@H](C)CC)C(=O)N[C@@H](C)C(=O)N[C@@H](CCCNC(=N)N)C(=O)N[C@@H](Cc1c[nH]cn1)C(=O)N[C@@H](CC(C)C)C(=O)N[C@@H](C)C(=O)N[C@@H](CCC(N)=O)C(=O)N[C@H](C(=O)NCC(=O)N[C@@H](CC(=O)O)C(=O)N[C@@H](CO)C(=O)N[C@@H](CCSC)C(=O)N[C@@H](CC(=O)O)C(=O)N[C@@H](CCCNC(=N)N)C(=O)N[C@@H](CO)C(=O)N[C@H](C(=O)N1CCC[C@H]1C(=O)N1CCC[C@H]1C(=O)NCC(=O)N[C@@H](CC(C)C)C(=O)N[C@H](C(=O)N[C@@H](CC(N)=O)C(=O)NCC(=O)N[C@@H](CC(C)C)C(=O)O)C(C)C)[C@@H](C)CC)C(C)C [Bid] | 20 ± 9 nM |
| VPGRLAEVCAVLLRLGDELEMIRPSV [Bok] | 198 ± 13 nM |
| PSSTMGQVGRQLAIIGDDINRRYDSE [Bak] | 8 nM |
